Measurements: patent US20220280594A1, “APPLICATION OF POLYPEPTIDE OR DERIVATIVE THEREOF” (CHENGDU HUITAI BIOMEDICINE CO., LTD., priority 2019, published 2022)
Ends that are not written are not given here. PEG = not defined here

Assays:
Type in all cases: cell-based
[1] = system: human thyroid cancer cells (FRO); test: scratch assay, migration of FRO cells; conditions: 10 μM, 48 hours, control group 60.34 ± 8.32
Experimental: (§1) In the scratch assay, the cell migration rate was negatively correlated with the inhibitory effect of the drug component on tumor cell migration ability. The cell migration inhibition experiment was described as follows: tumor cells were cultured in vitro, cells in logarithmic growth phase were collected and seeded evenly in a 24-well plate at a density of 1-2×10^5 cells/well; the cells were cultured in a cell incubator until a monolayer was formed; a scratch tool was used to make a “-” (straight) scratch on the monolayer of cells; the cells were washed 1-3 times with PBS, and a medium (with 2% fetal bovine serum) containing specific test components was added to the culture. Experimental grouping: PBS control group; polypeptide or derivative thereof treatment group (N1-N54), 10 μM. Three independent parallel wells were set up in each group, and the cells were cultured continuously in a cell incubator for 48 hours. […] At least 3 representative images for each well were taken. ImageJ software was used to count the migration distance of the cells, and the cell migration rate was calculated as: cell migration rate (%)=(width of original scratch−width of current scratch)/width of original scratch×100.
This example was a scratch assay to evaluate the inhibitory effect of the polypeptide or derivative thereof (N1-N54) on the migration ability of human thyroid cancer cells (FRO). The experimental method was as described in Example 2.

[2] = system: human liver adenocarcinoma cells (SK-HEP-1); test: transwell invasion assay, SK-HEP-1 cells; conditions: SK-HEP-1 transwell invasion, 10 μM, 24 hours; control group 767 ± 91
Text: (§2) The Transwell chamber system was used in the transwell cell invasion experiment. The chamber has an upper layer and a lower layer, which are separated by an artificial semipermeable membrane in the middle. The upper surface of the semipermeable membrane is coated with a layer of artificial matrigel to simulate extracellular matrix. Cells that have invaded through the matrigel and semi-permeable membrane will attach to the lower surface of the semi-permeable membrane. The invasion ability is evaluated by counting the number of cells on the lower surface of the semi-permeable membrane. The number of cells that have invaded is negatively correlated with the inhibitory effect of the drug on the invasion ability of the tumor cells. Transwell invasion assay was performed as follows: tumor cells were cultured in vitro, cells in logarithmic growth phase were collected, and cell suspension was prepared with fresh serum-free medium at a density of 2-3×10^5 cells/mL. Cells were inoculated, 100 μL/well cell suspension (serum-free medium) in the upper chamber and 600 μL/well complete culture medium in the lower chamber. After incubated in 37° C., 5% CO2 incubator for 4-5 hours, serum-free medium (100 μL/well) was added to the control group, and serum-free medium containing polypeptide or derivative thereof (N1-N54) was added to the upper chamber of the treatment group (100 μL/well), the final concentration of the peptide or derivative thereof in the upper chamber was 10 μM. The cells were incubated continuously for 24 hours, and then fixed with methanol and stained with crystal violet. Images were taken under a microscope and the number of invaded cells was counted with ImageJ.
This example was a transwell cell invasion experiment to evaluate the inhibitory effect of the polypeptide or derivative thereof (N1-N54) on the invasion ability of human liver adenocarcinoma cells (SK-HEP-1). The experimental method was as described in Example 4.

[3] = system: human lung squamous carcinoma cells (NCI-H226); test: scratch assay, migration of NCI-H226 cells; conditions: NCI-H226, 10 μM, 48 hours; control group 65.31 ± 3.19
Experimental: as §1
This example was a scratch assay to evaluate the inhibitory effect of the polypeptide or derivative thereof (N1-N54) on the migration ability of human lung squamous carcinoma cells (NCI-H226). The experimental method was as described in Example 2.

[4] = system: human colon cancer cells (HCT-116); test: scratch assay, migration of HCT-116 cells; conditions: HCT-116, 10 μM, 48 hours; control group 47.78 ± 6.07
Experimental: as §1
This example was a scratch assay to evaluate the inhibitory effect of the polypeptide or derivative thereof (N1-N54) on the migration ability of human colon cancer cells (HCT-116). The experimental method was as described in Example 2.

[5] = system: human melanoma cells (A375); test: scratch assay, migration of A375 cells; conditions: A375, 10 μM, 48 hours; control group 44.03 ± 6.21
Experimental: as §1
This example was a scratch assay to evaluate the inhibitory effect of the polypeptide or derivative thereof (N1-N54) on the migration ability of human melanoma cells (A375). The experimental method was as described in Example 2.

[6] = system: human pharyngeal squamous-cell carcinoma cells (Fadu); test: scratch assay, migration of Fadu cells; conditions: 10 μM, 48 hours, control group 28.76 ± 4.08
Experimental: as §1
This example was a scratch assay to evaluate the inhibitory effect of the polypeptide or derivative thereof (N1-N54) on the migration ability of human pharyngeal squamous-cell carcinoma cells (Fadu). The experimental method was as described in Example 2.

[7] = system: human pancreatic cancer cells (PANC-1); test: transwell migration assay, PANC-1 cells; conditions: PANC-1 transwell migration, 10 μM, 24 hours; control group 360 ± 60
Experimental: as §2, with “migration” for “invasion”, “middle.” for “middle. The upper surface of the semipermeable membrane is coated with a layer of artificial matrigel to simulate extracellular matrix.”, “migrated” for “invaded”, “the” for “the matrigel and”
This example was a transwell cell migration experiment to evaluate the inhibitory effect of the polypeptide or derivative thereof (N1-N54) on the migration ability of human pancreatic cancer cells (PANC-1). The experimental method was as described in Example 3.

[8] = system: human oral epidermoid carcinoma KB cells; test: scratch assay, migration of KB cells; conditions: 10 μM, 48 hours, control group 54.03 ± 4.21
Experimental: as §1
This example was a scratch assay to evaluate the inhibitory effect of the polypeptide or derivative thereof (N1-N54) on the migration ability of human oral epidermoid carcinoma cells (KB). The experimental method was as described in Example 2.

Row | Substance | Migration rate (%) (mean ± SD, P) [1] | Number of cells (mean ± SD, P), invaded cells [2] | Migration rate (%) (mean ± SD, P) [3] | Migration rate (%) (mean ± SD, P) [4] | Migration rate (%) (mean ± SD, P) [5] | Migration rate (%) (mean ± SD, P) [6] | Number of cells (mean ± SD, P), migrated cells [7] | Migration rate (%) (mean ± SD, P) [8]
1 | N1: polypeptide with the amino acid sequence set forth in SEQ ID NO: 1 (YRVRFLAKENVTQDAEDN) | 7.45 ± 2.78,*** % | 343 ± 38,*** | 12.68 ± 9.07,*** % | 10.27 ± 3.64,*** % | 8.49 ± 2.99,*** % | 5.68 ± 2.86,*** % | 245 ± 27,* | 7.49 ± 2.99,*** %
2 | N2: SEQ ID NO: 1 with deletion of one amino acid (position 18) at the carboxyl terminal (YRVRFLAKENVTQDAED) | 22.88 ± 5.43,** % | 432 ± 47,** | 12.42 ± 8.44,*** % | 23.42 ± 6.12,** % | 6.52 ± 1.25,*** % | 10.71 ± 2.30,** % | 221 ± 35,** | 6.82 ± 3.25,*** %
3 | N3: SEQ ID NO: 1 with deletion of position 18 and PEG modification at the amino terminal ({PEG}-YRVRFLAKENVTQDAED; reading uncertain) | 3.51 ± 1.34,*** % | 372 ± 62,*** | 16.38 ± 6.85,*** % | 22.06 ± 4.59,** % | 4.91 ± 1.19,*** % | 12.97 ± 3.58,** % | 224 ± 28,** | 9.95 ± 2.19,*** %
4 | N4: SEQ ID NO: 1 with deletion of positions 15-18 and positions 1-3 (RFLAKENVTQD) | 11.34 ± 2.73,*** % | 411 ± 75,** | 10.00 ± 10.27,** % | 25.48 ± 2.79,** % | 5.06 ± 2.32,*** % | 14.32 ± 2.67,** % | 268 ± 20,* | 5.96 ± 2.32,*** %
5 | N5: SEQ ID NO: 1 with addition of one amino acid at the carboxyl terminal and deletion of positions 1-3 (RFLAKENVTQDAEDNC) | 4.71 ± 1.90,*** % | 353 ± 52,*** | 10.65 ± 9.94,*** % | 12.75 ± 2.82,*** % | 9.82 ± 3.84,*** % | 9.07 ± 2.08,*** % | 234 ± 27,* | 9.62 ± 3.84,*** %
6 | N6: SEQ ID NO: 1 with deletion of four amino acids at the carboxyl terminal (positions 15-18) (YRVRFLAKENVTQD) | 3.24 ± 1.80,*** % | 145 ± 29,**** | 19.72 ± 8.97,** % | 18.13 ± 2.68,** % | 11.22 ± 1.65,*** % | 11.34 ± 2.04,** % | 144 ± 12,*** | 15.79 ± 3.16,** %
7 | N7: SEQ ID NO: 1 with addition of one amino acid at the carboxyl terminal and substitution A15R (YRVRFLAKENVTQDREDNC) | 5.73 ± 2.04,*** % | 463 ± 52,** | 18.83 ± 4.53,*** % | 20.09 ± 2.41,** % | 8.95 ± 1.27,*** % | 13.12 ± 3.56,** % | 132 ± 15,*** | 11.11 ± 3.86,*** %
8 | N8: SEQ ID NO: 1 with deletion of positions 15-18 and positions 3, 4 and 11 (YRFLAKENTQD) | 7.28 ± 2.89,*** % | 277 ± 38,**** | 20.29 ± 4.29,*** % | 16.96 ± 3.87,** % | 4.74 ± 1.84,*** % | 9.54 ± 5.75,** % | 133 ± 20,*** | 11.55 ± 1.62,*** %
